Target: Glycogen synthase kinase-3 beta (Homo sapiens, UniProt P49841)
Experiment: concentration-response blocking of human GSK3B – biochemical, luminescence, cell-free homogeneous, retest, dose response (AID 434954)

Sequence of Glycogen synthase kinase-3 beta (P49841 whole entry): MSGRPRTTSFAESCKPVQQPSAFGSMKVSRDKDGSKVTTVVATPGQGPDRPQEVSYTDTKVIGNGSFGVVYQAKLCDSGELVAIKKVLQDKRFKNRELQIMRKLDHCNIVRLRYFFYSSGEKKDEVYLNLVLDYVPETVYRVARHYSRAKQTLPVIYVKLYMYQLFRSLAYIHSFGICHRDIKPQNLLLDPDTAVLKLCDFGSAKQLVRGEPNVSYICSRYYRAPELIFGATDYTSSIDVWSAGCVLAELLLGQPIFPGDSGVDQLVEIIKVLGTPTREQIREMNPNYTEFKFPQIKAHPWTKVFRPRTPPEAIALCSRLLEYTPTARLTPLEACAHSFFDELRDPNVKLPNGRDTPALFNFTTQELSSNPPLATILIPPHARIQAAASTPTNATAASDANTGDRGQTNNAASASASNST

`COCCN(CC(=O)NCc1ccc(F)cc1)C(=O)CCC(=O)Nc1ccccn1` and `COc1ccc(CN(CC(=O)NCc2ccc(F)cc2)C(=O)CCC(=O)Nc2ccccn2)cc1` [N-[(4-Fluoro-benzylcarbamoyl)-methyl]-N-(4-methoxy-benzyl)-N'-pyridin-2-yl-succinamide] cannot be ordered by EC50: > 300 µM for the first, > 300 µM for the second.

First: Nc1nonc1-n1nnc(C(=O)NN=Cc2ccc(O)cc2)c1CN1CCCCCC1 [1-(4-azanyl-1,2,5-oxadiazol-3-yl)-5-(azepan-1-ylmethyl)-N'-[(4-oxidanylidenecyclohexa-2,5-dien-1-ylidene)methyl]-1,2,3-triazole-4-carbohydrazide]
Second: CCOC(=O)c1nnn(-c2nonc2N)c1-c1ccc(C)cc1 [ethyl 1-(4-amino-1,2,5-oxadiazol-3-yl)-5-(4-methylphenyl)triazole-4-carboxylate]
The EC50 of the first is 28-fold lower: 1.85 µM for the first, 51 µM for the second.

First: Nc1ncc([N+](=O)[O-])c(N2CCCCCC2)n1 [MLS001174873]
Second: O=[N+]([O-])c1cc(/C=N/n2cnnc2)ccc1N1CCCC1 [1-[3-nitro-4-(1-pyrrolidinyl)phenyl]-N-(1,2,4-triazol-4-yl)methanimine]
The EC50 of the first is lower: 18.4 µM for the first, > 300 µM for the second. The first is the more potent here.

First: CN(C)Cc1c(O)ccc2c3c(c(=O)oc12)CCCCC3 [4-Dimethylaminomethyl-3-hydroxy-8,9,10,11-tetrahydro-7H-cyclohepta[c]chromen-6-one]
Second: COc1cccc2c1cc1c(=O)n(CC(=O)NC3CCCCC3)nc(C)n12 [N-cyclohexyl-2-(9-methoxy-4-methyl-1-oxidanylidene-[1,2,4]triazino[4,5-a]indol-2-yl)ethanamide]
The EC50 of the first is lower: 78.8 µM for the first, > 300 µM for the second. The first is the more potent here.

`CC(=O)c1ccc(Cc2cnc(N)s2)cc1` [1-{4-[(2-amino-1,3-thiazol-5-yl)methyl]phenyl}ethanone] and `O=C(NCc1ccccn1)c1ccc(Cn2cc(Br)cn2)o1` [SMR000073000] cannot be ordered by EC50: > 300 µM for the first, > 300 µM for the second.

Going from `O=C(OCCCCOC(=O)c1ccccc1)c1ccccc1` [SMR000459786] to `CC1=Nc2ncnn2C(c2ccco2)C1C(=O)OCc1ccccc1` (stereo not drawn) [benzyl 7-(furan-2-yl)-5-methyl-1,7-dihydro-[1,2,4]triazolo[1,5-a]pyrimidine-6-carboxylate], the EC50 falls from > 300 µM to 40.7 µM. The second is the more potent here.

`COc1cc(CNC=C2C(=O)NC(=O)N(C(C)(C)C)C2=O)cc(OC)c1` [(5Z)-1-tert-butyl-5-[[(3,5-dimethoxyphenyl)methylamino]methylidene]-1,3-diazinane-2,4,6-trione] and `COc1ccc(OC)c(C(=O)c2coc3ccc(OC)cc23)c1` [MLS000108671] cannot be ordered by EC50: > 300 µM for the first, > 300 µM for the second.

Going from `Cc1ccc(S(=O)(=O)NCC2COc3ccccc3O2)cc1` (stereo not drawn) [N-(2,3-Dihydro-benzo[1,4]dioxin-2-ylmethyl)-4-methyl-benzenesulfonamide] to `COC(=O)c1ccc(CSc2ccc3nnc(-c4ccc(F)cc4)n3n2)o1` [5-[[[3-(4-fluorophenyl)-[1,2,4]triazolo[4,3-b]pyridazin-6-yl]thio]methyl]-2-furancarboxylic acid methyl ester], the EC50 falls from > 300 µM to 4.59 µM.

`NC(=O)c1ncn([C@@H]2O[C@H](CO)[C@@H](O)[C@H]2O)c1O` [1-[(2R,3R,4S,5R)-5-(hydroxymethyl)-3,4-bis(oxidanyl)oxolan-2-yl]-5-oxidanyl-imidazole-4-carboxamide] and `Nc1nc(Cl)nc2c1ncn2C1OC(CO)C(O)C1O` (stereo not drawn) cannot be ordered by EC50: > 300 µM for the first, > 300 µM for the second.

`COc1ccc2nc(Cl)cc(Cl)c2c1` [SMR000430028] and `O=c1c(-c2ccc(O)cc2)coc2cc(O)cc(O)c12` [Prunetol] cannot be ordered by EC50: > 300 µM for the first, > 300 µM for the second.

First: CCN1CCN(CCNC(=O)c2ccc3c(c2)NC(=O)/C(=C\c2ccc(OC)c(OC)c2)S3)CC1 [(2E)-2-[(3,4-dimethoxyphenyl)methylidene]-N-[2-(4-ethylpiperazin-1-yl)ethyl]-3-oxidanylidene-4H-1,4-benzothiazine-6-carboxamide]
Second: CC1(C)CC(=O)C=C(Nc2ccc3c(c2)OCCO3)C1 [3-(2,3-dihydro-1,4-benzodioxin-6-ylamino)-5,5-dimethyl-1-cyclohex-2-enone]
The EC50 of the first is lower: 16.3 µM for the first, > 300 µM for the second.

With `Cc1cc(C)n2nc(SCC(=O)N(CC(C)C)c3c(N)n(CC(C)C)c(=O)[nH]c3=O)nc2n1` the EC50 was > 300 µM.

From BindingDB's records for doi:10.7270/Q2TX3CTT (Broad Institute, 2010)
